Key:
Type in all cases: cell-based
[1] = tested on: GLUT1 mRNA expression in followers; test: GLUT1 mRNA expression by qRT-PCR; conditions: 24 hrs, FIG. 7C
Method: (§1) To determine how GLUT1 expression in followers could be regulated upstream, signaling alterations that might contribute to altered GLUT1 expression in leaders and followers were evaluated. YAP and TAZ are transcriptional co-activators of TEAD (Hippo signaling) and regulate GLUT1 expression. YAP/TEAD 1-4 members were interrogated. […] Cells were treated with the YAP/TEAD inhibitor, verteporfin, which has promising anti-tumor activity.

H1299 cells = test: Cell number / viability after verteporfin; conditions: parental H1299 cells; 72 hours; FIG. 7D
Method: as §1

parental H1299 cells = test: Spheroid invasion assay, parental H1299; conditions: FIG. 7E
Method: as §1

follower/leader cells = conditions: leaders vs followers; 72 hrs of treatment; FIG. 3D
[2] = tested on: p-PDHS293 in leader cells; test: p-PDHS293 after alexidine treatment, leader cells; conditions: alexidine treatment for 24 hours
From the text: Alexidine Dihydrochloride Induces Metabolic Reprogramming of Leader Cells Via S293 Phosphorylation of PDH
(§2) Since alexidine inhibits active PDH in leaders and Bay-876 targets GLUT1, the combination of alexidine and Bay-876 to co-target these cellular subtypes, respectively, during collective invasion was examined. To quantitatively determine synergy a combination index analyses was used. […] Importantly, normal lung epithelial cells (HBEC, MRC5) had no synergy at low and moderate doses (FIG. 8A). The effects of Bay-876 plus alexidine on invasion were examined. […] It is also contemplated that one can co-target metabolically heterogeneous populations using the combination of the leader cell targeting agent, alexidine, and the GLUT1 targeting agent, BAY-876 or the glycolytic/PPP activity of followers and OXHOS-driven biology of the leaders in a manor illustrated in the table below.

leader cells [3] = test: Cell death in leader cells; conditions: after 72 hours
From the text: (§3) Compounds were screened, and it was discovered that most compounds effective at inhibiting lead cells were typically anti-metabolic agents that disrupt OXPHOS. One such compound, alexidine hydrochloride targets mitochondrial function. Leader cells are sensitive to mitochondria-targeting agents as a class.

leader cells [4] = test: Lactate production after alexidine treatment; conditions: alexidine treatment for 24 hours
[5] = tested on: multiple lung and mixed leader:follower lines; test: Collective invasion of spheroids embedded in Matrigel; conditions: alexidine alone
From the text: Brightfield representative images are shown. Solid lines designate outer perimeter. Scale bar=50 μm.
as §3, §2

[6] = tested on: pPDHS293 in follower cells; test: pPDHS293 after alexidine treatment, follower cells

verteporfin
GLUT1 mRNA expression [1]: suppressed GLUT1 mRNA expression in followers in a dose-dependent manner
proliferative properties (cell number) (H1299 cells): significantly reduced
invasive properties (invasive area) (parental H1299 cells): significantly reduced

CN(C)C(=N)N=C(N)N [metformin]
sensitivity of leaders to complex I inhibitors (proliferation) (follower/leader cells): increased sensitivity

C/C=C(\C)[C@H](O)[C@H](C)/C=C(C)/C=C/C/C(C)=C/Cc1nc(OC)c(OC)c(O)c1C [piericidin, piericidin A]
sensitivity of leaders to complex I inhibitors (proliferation) (follower/leader cells): increased sensitivity

CCCCC(CC)CNC(=N)NC(=N)NCCCCCCNC(=N)NC(=N)NCC(CC)CCCC (centres unmarked) [Alexidine, 1,1′-(hexane-1,6-diyl)bis(5-(2-ethylhexyl)biguanidine)]
p-PDHS293 level [2]: increased p-PDHS293
cell death (leader cells [3]): no significant amount of cell death
lactate production (leader cells [4]): increased lactate production
doses decreasing invasiveness relative to doses inducing cell death ([5]; earlier time points prior to effect on proliferation): doses lower than those that induce cell death
collective invasion ([5]; multiple lung cell lines): dose-dependent inhibition
impact on pPDHS293 [6]: no significant impact
